These results are taken from patent US8822449B2, “Substituted aminoindanes and analogs thereof, and the pharmaceutical use thereof” (Sanofi, priority 2008, dated 2014).

Molecules are shown by their SMILES. Read-outs that look alike come from different tables or passages of the source. A value given as a limit tells only on which side of the number the result lay.

In this experiment the target is T1, sodium-proton exchanger of subtype 3 (NHE3) (Homo sapiens, UniProt P48764).
T1 construct: expressed in transfected cells
T1 sequence (P48764 26-834): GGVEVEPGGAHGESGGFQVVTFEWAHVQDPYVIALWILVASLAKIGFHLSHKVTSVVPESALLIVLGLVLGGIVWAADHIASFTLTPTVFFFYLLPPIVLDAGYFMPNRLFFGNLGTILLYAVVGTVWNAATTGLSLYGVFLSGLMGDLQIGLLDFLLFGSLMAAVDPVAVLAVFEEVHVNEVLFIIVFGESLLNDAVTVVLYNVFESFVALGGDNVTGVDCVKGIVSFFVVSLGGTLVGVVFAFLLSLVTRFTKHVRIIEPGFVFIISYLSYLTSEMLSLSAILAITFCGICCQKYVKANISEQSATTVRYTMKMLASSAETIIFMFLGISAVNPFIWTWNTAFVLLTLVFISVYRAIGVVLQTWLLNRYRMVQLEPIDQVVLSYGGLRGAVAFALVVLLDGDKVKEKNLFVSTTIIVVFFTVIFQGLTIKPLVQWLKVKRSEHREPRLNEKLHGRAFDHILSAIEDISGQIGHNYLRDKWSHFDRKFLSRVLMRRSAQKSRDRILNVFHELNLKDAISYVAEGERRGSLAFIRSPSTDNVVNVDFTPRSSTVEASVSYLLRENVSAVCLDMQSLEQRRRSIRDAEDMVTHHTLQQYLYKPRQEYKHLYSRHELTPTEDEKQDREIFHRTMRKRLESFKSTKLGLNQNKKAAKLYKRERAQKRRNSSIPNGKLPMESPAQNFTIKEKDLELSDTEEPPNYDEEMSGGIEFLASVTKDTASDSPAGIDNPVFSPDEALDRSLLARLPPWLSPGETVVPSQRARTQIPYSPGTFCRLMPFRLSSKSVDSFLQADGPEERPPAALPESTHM
Description: Recovery of intracellular pH (pHi) after acidification in LAP1 cells stably expressing NHE3 (BCECF fluorescence, FLIPR). It is filed as cell-based. To be noted: LAP1 cells stably expressing NHE3, pH recovery after acidification, range 1 is % inhibition at 10 μM.

The mark [1] stands for this setting: read-out: Activity range (inhibitory effect on NHE3).

For `N[C@H]1CCCN([C@H]2CCc3ccccc3[C@@H]2Oc2ccc(-n3cncn3)cc2)C1` (racemic) [Example 171, (S)-1-[rac-trans-(1,2)-1-(4-[1,2,4]triazol-1-ylphenoxy)-1,2,3,4-tetrahydronaphthalen-2-yl]piperidin-3-ylamine], under setting [1], the IC50 was 1000 to 10000 nM.

As to `NC(=O)c1ccc(O[C@@H]2c3ccccc3C[C@H]2N2CCC[C@@H](N)C2)cc1` (racemic) [Example 524, 4-[rac-trans-(1,2)-2-((R)-3-aminopiperidin-1-yl)indan-1-yloxy]benzamide], under setting [1], the IC50 was less than 1000 nM.

As to `CN1CCCN([C@H]2Cc3c(Cl)cc(Cl)cc3[C@@H]2Oc2ccc(S(C)(=O)=O)cc2)CC1` (racemic) [Example 279, 1-[rac-trans-(1,2)-4,6-dichloro-1-(4-methanesulfonylphenoxy)indan-2-yl]-4-methyl-[1,4]diazepane], the IC50 under setting [1] is less than 1000 nM. On to `Cc1nnc(C)n1-c1ccc(O[C@H]2c3ccccc3C[C@@H]2N2CCCC2)c(Cl)c1` [Example 491, 4-[3-chloro-4-(trans-(1S,2S)-2-pyrrolidin-1-ylindan-1-yloxy)phenyl]-3,5-dimethyl-4H-[1,2,4]triazole], for which the IC50 under setting [1] is less than 1000 nM. The same measure, in the same setting: the value for `Cc1nnc(C)n1-c1ccc(O[C@H]2c3cc(F)cc(F)c3C[C@@H]2N2CC[C@@H](O)C2)c(F)c1` [Example 110, (R)-1-{(1S,2S)-1-[4-(3,5-dimethyl-[1,2,4]triazol-4-yl)-2-fluorophenoxy]-4,6-difluoroindan-2-yl}pyrrolidin-3-ol] was less than 1000 nM. On to `O=C1CNC(=O)N1c1ccc(F)c(O[C@H]2c3cc(Cl)cc(Cl)c3C[C@@H]2N2CC[C@@H](O)C2)c1` [Example 417, 3-{3-[(1S,2S)-4,6-dichloro-2-((R)-3-hydroxypyrrolidin-1-yl)indan-1-yloxy]-4-fluorophenyl}imidazolidine-2,4-dione], for which the IC50 under setting [1] lay in the range of 1000 to 10000 nM.

For the molecule `NS(=O)(=O)c1ccc(O[C@H]2c3ccccc3C[C@@H]2N2CC[C@@H](CO)C2)cc1` (racemic) [Example 526, 4-[rac-trans-(1,2)-2-((R)-3-Hydroxymethylpyrrolidin-1-yl)indan-1-yloxy]benzenesulfonamide], the IC50 under setting [1] was in the range of 1000 to 10000 nM. On the same count and under the same terms, to `CCn1c(C)nn(-c2ccc(O[C@H]3c4cc(Cl)cc(Cl)c4C[C@@H]3N3CC[C@@H](O)C3)cc2)c1=O` [Example 737, 2-{4-[trans-(1S,2S)-4,6-Dichloro-2-((R)-3-hydroxy-pyrrolidin-1-yl)-indan-1-yloxy]-phenyl}-4-ethyl-5-methyl-2,4-dihydro-[1,2,4]triazol-3-one] belongs 1000 to 10000 nM.

For `Cc1nc2cc(O[C@H]3c4cc(Cl)cc(Cl)c4C[C@@H]3N3CC[C@@H](O)C3)ccc2s1` [Example 96, (R)-1-[trans-(1S,2S)-4,6-dichloro-1-(2-methylbenzothiazol-5-yloxy)indan-2-yl]pyrrolidin-3-ol], under setting [1], the inhibition at 10 µM was 20 to 50%. For `CS(=O)(=O)c1ccc(N[C@H]2c3cc(Cl)cc(Cl)c3C[C@@H]2N2CC[C@@H](O)C2)cc1` [Example 26, (R)-1-[(1S,2S)-4,6-dichloro-1-(4-methanesulfonylphenylamino)indan-2-yl]pyrrolidin-3-ol], the IC50 under setting [1] lay in the range of 1000 to 10000 nM.

As for `CS(=O)(=O)c1ccc(O[C@H]2c3cc(Cl)cc(Cl)c3C[C@@H]2N2CC[C@@H](CO)C2)cc1` [Example 227, {(R)-1-[trans-(1S,2S)-4,6-dichloro-1-(4-methanesulfonylphenoxy)indan-2-yl]pyrrolidin-3-yl}methanol], the IC50 under setting [1] lay within 1000 to 10000 nM.

In the case of `CS(=O)(=O)c1ccc(O[C@H]2c3ccccc3C[C@@H]2N2CCCC(NCC(F)(F)F)C2)cc1` (stereo partly drawn) [Example 219, {(R)-1-[trans-(1S,2S)-1-(4-methanesulfonylphenoxy)indan-2-yl]piperidin-3-yl}-(2,2,2-trifluoroethyl)amine], the inhibition at 10 µM under setting [1] is 20 to 50%.

For the molecule `CC(=O)Nc1cccc(O[C@H]2c3ccccc3C[C@@H]2N2CC[C@@H](CO)C2)c1` (racemic) [Example 680, N-{3-[rac-trans-(1,2)-2-((R)-3-hydroxymethylpyrrolidin-1-yl)indan-1-yloxy]phenyl}acetamide], the IC50 under setting [1] lay within 1000 to 10000 nM.

Consider `N[C@@H]1CCCN([C@H]2CCc3ccccc3[C@@H]2Oc2ccc(F)cc2F)C1` (racemic) [Example 32, (R)-1-[rac-trans-(1,2)-1-(2,4-difluorophenoxy)-1,2,3,4-tetrahydronaphthalen-2-yl]piperidin-3-ylamine], for which the inhibition at 10 µM under setting [1] was 20 to 50%. `N[C@H]1CCCN([C@@H]2Cc3ccccc3[C@H]2Oc2cccc(CN3CCCCC3)c2)C1` (racemic) [Example 170, (S)-1-[rac-trans-(1,2)-1-(3-piperidin-1-ylmethylphenoxy)indan-2-yl]piperidin-3-ylamine]: under setting [1], the IC50 was 1000 to 10000 nM. `CCN(CC)[C@@H]1Cc2ccccc2[C@H]1Oc1ccc(N2CCNCC2)cc1` (racemic) [Example 627, Diethyl-[rac-trans-(1,2)-1-(4-piperazin-1-ylphenoxy)indan-2-yl]amine]: the IC50 (Activity range (inhibitory effect on NHE3)) is 1000 to 10000 nM. As to `NC1CCN([C@@H]2Cc3ccccc3[C@H]2Oc2ccc3cc[nH]c3c2)C1` (mixture of isomers) [Example 262, 1-[rac-trans-(1,2)-1-(1H-indol-6-yloxy)indan-2-yl]pyrrolidin-3-ylamine], under setting [1], the IC50 was 1000 to 10000 nM.

With `CN1CCN(S(=O)(=O)c2ccc(O[C@H]3c4cc(Cl)cc(Cl)c4C[C@@H]3N3CC[C@@H](O)C3)cc2)CC1` [Example 742, (R)-1-{trans-(1S,2S)-4,6-Dichloro-1-[4-(4-methyl-piperazine-1-sulfonyl)-phenoxy]-indan-2-yl}-pyrrolidin-3-ol], under setting [1], the IC50 was 1000 to 10000 nM. As for `N[C@@H]1CCCN([C@H]2Cc3c(Cl)cc(Cl)cc3[C@@H]2Oc2ccc(F)cc2-c2cc[nH]n2)C1` [Example 113, (R)-1-{(1S,2S)-4,6-dichloro-1-[4-fluoro-2-(1H-pyrazol-3-yl)phenoxy]indan-2-yl}piperidin-3-ylamine], under setting [1], the IC50 was less than 1000 nM.

Consider `Cn1ccn(-c2ccc(O[C@H]3c4cc(Cl)cc(Cl)c4C[C@@H]3N3CC[C@@H](O)C3)c(F)c2)c1=O` [Example 329, 1-{4-[trans-(1S,2S)-4,6-dichloro-2-((R)-3-hydroxypyrrolidin-1-yl)indan-1-yloxy]-3-fluorophenyl}-3-methyl-1,3-dihydroimidazol-2-one], for which the IC50 under setting [1] was less than 1000 nM. On to `CS(=O)(=O)c1ccc(O[C@H]2c3cc(Cl)cc(Cl)c3C[C@@H]2N2CCC[C@@H](NCC#N)C2)cc1` [Example 225, {(R)-1-[trans-(1S,2S)-4,6-dichloro-1-(4-methanesulfonylphenoxy)indan-2-yl]piperidin-3-ylamino}acetonitrile], for which the IC50 under setting [1] was less than 1000 nM. With `Fc1ccc(O[C@H]2c3cc(Cl)cc(Cl)c3C[C@@H]2N2CCNCC2)c(-c2cc[nH]n2)c1` [Example 309, 1-{(1S,2S)-4,6-dichloro-1-[4-fluoro-2-(1H-pyrazol-3-yl)phenoxy]indan-2-yl}piperazine], under setting [1], the IC50 was less than 1000 nM. Same read-out and setting: to `O[C@@H]1CCN([C@H]2Cc3c(Cl)cc(Cl)cc3[C@@H]2Oc2ccc(-n3ccnc3)cc2)C1` [Example 728, (R)-1-[trans-(1S,2S)-4,6-Dichloro-1-(4-imidazol-1-yl-phenoxy)-indan-2-yl]-pyrrolidin-3-ol] belongs 1000 to 10000 nM; to `O=C1CCC(=O)N1c1ccc(O[C@H]2c3cc(Cl)cc(Cl)c3C[C@@H]2N2CC[C@@H](O)C2)c(Cl)c1` [Example 322, 1-{3-chloro-4-[(1S,2S)-4,6-dichloro-2-((R)-3-hydroxypyrrolidin-1-yl)indan-1-yloxy]phenyl}pyrrolidine-2,5-dione], less than 1000 nM; to `Cc1nnc(C)n1-c1ccc(O[C@H]2c3ccccc3C[C@@H]2N2CCC[C@@H](NCCC(F)(F)F)C2)cc1` [Example 1, ((R)-1-{trans-(1S,2S)-1-[4-(3,5-dimethyl-[1,2,4]triazol-4-yl)phenoxy]indan-2-yl}piperidin-3-yl)-(3,3,3-trifluoropropyl)amine], 1000 to 10000 nM. The same measure, in the same setting: to `CS(=O)(=O)c1ccc(O[C@H]2c3ccccc3C[C@@H]2N2CCCC2)cc1` (racemic) [Example 273, 1-[rac-trans-(1,2)-1-(4-methanesulfonylphenoxy)indan-2-yl]pyrrolidine] belongs less than 1000 nM; to `NC(=O)c1cccc(O[C@@H]2c3ccccc3C[C@H]2N2CCC[C@@H](N)C2)c1` (racemic) [Example 411, 3-[rac-trans-(1,2)-2-((R)-3-aminopiperidin-1-yl)indan-1-yloxy]benzamide], less than 1000 nM. For `Cc1c(Cl)ccc(O[C@@H]2c3ccccc3C[C@H]2N2C[C@H]3CNC[C@H]3C2)c1Cl` (racemic) [Example 4, 2-[rac-trans-(1,2)-1-(2,4-dichloro-3-methylphenoxy)indan-2-yl]octahydropyrrolo[3,4-c]pyrrole], under setting [1], the IC50 lay within 1000 to 10000 nM.
